Laboratory results as given in patent publication US20210379147A1, “METHOD AND SYSTEM FOR TREATING CANCER UTILIZING TINAGL1” (The Trustees of Princeton University, priority 2018, published 2021).

How the values were obtained:
LM2 cells = assay: LM2 orthotopic tumors, single or combined agent treatment; assay type: in vivo, NSG female mice; settings: for spontaneous lung metastasis: LM2 tumors, ex vivo BLI at endpoint
Experimental: FIG. 17A is an image of WB analyses where NSG female mice were injected with 10^4 LM2 cells by MFP injection, and intravenously treated with the indicated reagents twice per week when tumors reached to 2 mm in dimeter, then after 5 weeks of the treatments, the primary tumors of each group were collected and activation of EGFR and FAK in primary tumor of each group were tested by WB.
FIG. 17B is a graph illustrating tumor volumes of each treatment group from FIG. 17A.
FIG. 17C is a graph, quantifying ex vivo BLI results where lungs in mice from FIG. 17A were collected and spontaneous metastasis was examined at the endpoint.
Two molecular targeting reagents, ATN-161 (ATN) and Erlotinib (Erlo) were employed. ATN is an integrin α5β1 antagonist that inhibits the integrin signaling pathway and slows tumor progression. Erlotinib is a well-established small molecular inhibitor of EGFR and is clinically approved for cancer treatment. Mice orthotopically implanted with LM2 cells were split into 6 groups after the tumors reached 2 mm in diameter and subjected to various single or combined agent treatments twice per week [(1) PBS; (2) ATN 30 μg/mouse; (3) Erlo 100 mg/kg; (4) r-Tinagl1 30 μg/mouse; (5) ATN and Erlo; and (6) ATN, Erlo, and r-Tinagl1]. Referring to FIG. 17A, the inhibition of integrin/FAK and EGFR upon each treatment was validated by western blotting and TIC staining.
(§1) For xenograft studies, 8-weeks immunocompromised NOD Scid Gamma (NSG) or immunocompetent FVB females were used. Cells were suspended in 10 μl of PBS for mammary gland injection (MFP), or were suspended in 100 μl of PBS for intravenous injection. For human patient-derived xenograft (PDX, HCL001, kindly provided by Dr. Alana Welm) study, we followed the standard protocol for PDX transplantation, maintenance and digestion of the tumors (DeRose et al., 2011). 2×10^4 cells were suspended in 10 μl of PBS and subjected to MFP injection. For recombinant Tinagl1 (r-Tinagl1), ATN-161, Erlotinib treatments, the mice were injected with 30 μg/mouse, 30 μg/mouse, and 100 mg/kg respectively twice per week via tail-vein. Primary tumors were quantified once per week via caliper measurement. All cell lines used for lung metastasis experiments were stably labeled with a firefly luciferase expressing vector and were monitored by weekly bioluminescent imaging (BLI). At protocol-defined endpoints, lungs were dissected and fixed in bouin's solution and the metastatic lesions were counted.

SUM159-M1a = SUM159-M1a orthotopic tumors, single or combined agent treatment; assay type: in vivo, NSG female mice; settings: SUM159-M1a model
Experimental: FIG. 17D is an image of WB analyses where NSG female mice were injected with 10^4 M1a cells by MFP injection, and treated with the indicated reagents twice per week when tumors reached to 2 mm in diameter, then after 5 weeks of the treatments, the primary tumors of each group were collected and activation of EGFR and FAK in primary tumor of each group was tested by WB.
FIG. 17E is a graph illustrating tumor volumes of each treatment group from FIG. 17D.
as §1, with “For recombinant Tinagl1 (r-Tinagl1), ATN-161, Erlotinib treatments, the mice were injected with 30 μg/mouse, 30 μg/mouse, and 100 mg/kg respectively twice per week via tail-vein.” left out

[1] = system: primary tumors and lung metastases; assay: IHC staining of tumor samples from treatment groups (Ki67, Casp3, CD31, α-SMA); assay type: in vivo, NSG female mice; settings: for tumor cell proliferation (Ki67 staining): primary tumor and lung metastatic nodules
Experimental: FIGS. 17F-17I are graphs quantifying positives cells per field where primary tumors were collected from indicated treatment groups from FIG. 17D and then subjected to IHC staining with indicated antibodies, including % Ki67^+ (17F), % Casp3^+ (17G), % CD31^+ (17H), and % α-SMA^+ (17I).
TIC staining was performed as previously described (Wan et al., 2014). Briefly, Paraffin-embedded primary tumor or lung samples were sliced into 4 μm thickness. The slides were baked overnight at 60° C. Next, the tissue slides were washed with PBS after deparaffinization and hydration and then boiled in citrate buffer at 100° C. for 40 min. After treated with 3% H2O2 for 30 min to block endogenous peroxidase, slides were incubated at 4° C. overnight with Ki67 (Leica Biosystem, Ki67-MM1-L-CE-S), cleaved caspase-3 (Cell signaling, 9661S), p-EGFR (Cell signaling, 3777), p-FAK (Cell signaling, 8556), CD31 (Cell signaling, 77699), -SMA (Sigma, A5228), or Tinagl1 (Sigma, HPA048695) antibodies. Following washes with PBS, slides were then incubated with HRP-conjugated goat anti-rabbit or mouse secondary antibody (Genetech) for 30 min at room temperature. Sections were stained by DAB and then counterstained with Gill hematoxylin according to manufacturer's instructions.

human EGFR-GFP = target: T1, human EGFR-GFP (human, UniProt P00533 25-1210); assay: competition co-IP in lysate of HEK293T cells co-expressing Tinagl1-HA and GFP-EGFR; competitor of Tinagl1-HA
T1 construct: Printed both as GFP-EGFR and EGFR-GFP; the order of the two pieces is not certain; Expressed in HEK293T or LM2 cells, assayed in lysate; also called GFP-EGFR; not shown: GFP

[2] = target: T2, mutant integrin β1 subunit (β1-M) with deletion of aa 130-240 (human, UniProt P05556 21-798); assay: IP and WB from HEK293T cells overexpressing β1-M and Tinagl1-HA
T2 construct: Overexpressed in HEK293T cells, assayed in lysate; said to be still localized to the cell surface; also called β1-mutant; integrin subunit β1-Δ130-240aa
T2 sequence (P05556 other isoform, or with tags, fused parts or gaps mutant): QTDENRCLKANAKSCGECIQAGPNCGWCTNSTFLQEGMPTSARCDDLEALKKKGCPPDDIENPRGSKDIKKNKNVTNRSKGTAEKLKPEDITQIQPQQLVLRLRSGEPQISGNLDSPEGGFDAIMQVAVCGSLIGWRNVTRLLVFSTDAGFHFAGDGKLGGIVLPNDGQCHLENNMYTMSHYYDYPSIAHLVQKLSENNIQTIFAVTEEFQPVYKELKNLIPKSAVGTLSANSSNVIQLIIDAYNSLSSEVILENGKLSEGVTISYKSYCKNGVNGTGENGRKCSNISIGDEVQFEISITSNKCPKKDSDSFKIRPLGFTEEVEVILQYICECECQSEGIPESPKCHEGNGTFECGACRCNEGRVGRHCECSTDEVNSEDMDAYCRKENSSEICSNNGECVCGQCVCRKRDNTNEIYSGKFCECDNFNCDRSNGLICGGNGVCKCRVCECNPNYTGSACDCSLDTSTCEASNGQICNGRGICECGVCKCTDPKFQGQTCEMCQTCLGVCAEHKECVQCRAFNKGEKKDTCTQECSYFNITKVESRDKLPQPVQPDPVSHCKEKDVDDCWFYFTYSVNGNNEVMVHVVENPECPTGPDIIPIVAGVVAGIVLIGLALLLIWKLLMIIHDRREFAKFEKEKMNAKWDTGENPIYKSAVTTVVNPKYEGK
Experimental: Immunoprecipitation (IP) and western blotting (WB) analysis. For an IP experiment, cells were collected in 1.5 ml EP tube when they reached to 100% confluency in 10 or 15 cm dish as indicated. […] Meanwhile, culture media was 100× concentrated and mixed with the cell lysates. The samples were centrifuged, 100 μl of the supernatant was transferred to a new tube as input, and the rest was incubated with 2 μg of IgG, anti-HA, anti-Myc, anti-Integrin subunit β1, anti-Integrin subunit α5 or anti-EGFR (as indicated in each experiment) overnight at 4° C. (recombinant proteins may be added at this step as indicated in each experiment). […] The beads were then washed for 5 times with IP lysis buffer. After final spin, the beads were boiled with 50 μl of 1×SDS Laemmli buffer for 5 min, and the samples were subjected to western blotting (WB). […] 100 μl of combined solution was transferred to a new tube and served as input. The rest was split into two tubes and IP with 2 μg of IgG or His antibody respectively. The IP samples were washed with PBS and analyzed with WB.

Q: With `C#Cc1cccc(Nc2ncnc3cc(OCCOC)c(OCCOC)cc23)c1` [Erlotinib] as the molecule, how does the primary tumor growth (LM2 cells; LM2, twice per week, ATN 30 μg/mouse, Erlo 100 mg/kg, r-Tinagl1 30 μg/mouse) read?
A: trended toward reducing primary tumor growth but did not reach statistical significance

Q: What about the spontaneous lung metastasis (LM2 cells) of the same molecule?
A: reduced spontaneous lung metastasis

Q: What about the lung metastasis (SUM159-M1a) of the same molecule?
A: reduced lung metastasis

Q: What about the “CD31+ endothelium” value ([1]; primary and lung metastasis) of the same molecule?
A: significantly reduced

Q: What about the “tumor cell proliferation (Ki67 staining)” value [1] of the same molecule?
A: inhibited tumor cell proliferation in lung metastatic nodules but not primary sites

Q: Which results are given for ATN-161?
A: spontaneous lung metastasis (LM2 cells): no reduction was observed; tumor cell proliferation (Ki67 staining) [1]: suppressed proliferation in primary tumor but not lung metastatic nodules

B1: full length recombinant human Tinagl1 with 6xHis tag at the C-terminus (r-Tinagl1) (other)
chain: AQQGRGRRELAPGLHLRGIRDAGGRYCQEQDLCCRGRADDCALPYLGAICYCDLFCNRTVSDCCPDFWDFCLGVPPPFPPIQGCMHGGRIYPVLGTYWDNCNRCTCQENRQWQCDQEPCLVDPDMIKAINQGNYGWQAGNHSAFWGMTLDEGIRYRLGTIRPSSSVMNMHEIYTVLNPGEVLPTAFEASEKWPNLIHEPLDQGNCAGSWAFSTAAVASDRVSIHSLGHMTPVLSPQNLLSCDTHQQQGCRGGRLDGAWWFLRRRGVVSDHCYPFSGRERDEAGPAPPCMMHSRAMGRGKRQATAHCPNSYVNNNDIYQVTPVYRLGSNDKEIMKELMENGPVQALMEVHEDFFLYKGGIYSHTPVSLGRPERYRRHGTHSVKITGWGEETLPDGRTLKYWTAANSWGPAWGERGHFRIVRGVNECDIESFVLGVWGRVGMEDMGHHVDHHHHHH
notes: also called r-Tiangl1; recombinant Tinagl1 protein
Q: Does B1 bind (human EGFR-GFP)?
A: binds

B2: C-terminal HA tagged Tinagl1 (Tinagl1-HA) (other)
chain: AQQGRGRRELAPGLHLRGIRDAGGRYCQEQDLCCRGRADDCALPYLGAICYCDLFCNRTVSDCCPDFWDFCLGVPPPFPPIQGCMHGGRIYPVLGTYWDNCNRCTCQENRQWQCDQEPCLVDPDMIKAINQGNYGWQAGNHSAFWGMTLDEGIRYRLGTIRPSSSVMNMHEIYTVLNPGEVLPTAFEASEKWPNLIHEPLDQGNCAGSWAFSTAAVASDRVSIHSLGHMTPVLSPQNLLSCDTHQQQGCRGGRLDGAWWFLRRRGVVSDHCYPFSGRERDEAGPAPPCMMHSRAMGRGKRQATAHCPNSYVNNNDIYQVTPVYRLGSNDKEIMKELMENGPVQALMEVHEDFFLYKGGIYSHTPVSLGRPERYRRHGTHSVKITGWGEETLPDGRTLKYWTAANSWGPAWGERGHFRIVRGVNECDIESFVLGVWGRVGMEDMGHH
notes: Expressed in LM2 or HEK293T cells; assayed in cell lysate mixed with concentrated culture media; also called Tiangl1-HA; not shown: human influenza hemagglutinin (HA) tag fused to the C-terminal
Q: Does B2 bind [2]?
A: no binding
